Bridge positions count the residues as written; N and C are the ends. Square brackets hold non-standard residues; d marks the D form. Peptide text beside a SMILES is read from it. 1Nal = N[C@@H](Cc1cccc2ccccc12)C(=O)O
What was measured:
[1] = tested on: thapsigargin-induced IFN-g production in human whole blood; format: cell-based; conditions: for IC50: read-out: Analogue Activity (IC50) WB/IFNg
[2] = tested on: thapsigargin-induced IL-2 production in human whole blood; conditions: for IC50: read-out: Analogue Activity (IC50) WB/IL-2
[3] = molecular target: T1, human Kv1.3 (CHO) (Homo sapiens, UniProt P22001); assay: cell-based; format: cell-based
T1 construct: expressed in transfected cells

[4] = molecular target: T2, human Kv1.1 (HEK293) (Homo sapiens, UniProt Q09470); assay: cell-based
T2 construct: expressed in transfected cells; host or cells: HEK293

[5] = tested on: CD40L on CD4+ T cells in human whole blood; format: cell-based
[6] = tested on: IL-2R on CD4+ T cells in human whole blood; format: cell-based
[7] = molecular target: T3, human Kv1.1 (Homo sapiens, UniProt Q09470); format: cell-based
T3 construct: expressed in transfected cells; host or cells: HEK293

[8] = molecular target: human Kv1.3 (Homo sapiens, UniProt P22001); assay: cell-based
Sequence of human Kv1.3 (P22001 whole entry): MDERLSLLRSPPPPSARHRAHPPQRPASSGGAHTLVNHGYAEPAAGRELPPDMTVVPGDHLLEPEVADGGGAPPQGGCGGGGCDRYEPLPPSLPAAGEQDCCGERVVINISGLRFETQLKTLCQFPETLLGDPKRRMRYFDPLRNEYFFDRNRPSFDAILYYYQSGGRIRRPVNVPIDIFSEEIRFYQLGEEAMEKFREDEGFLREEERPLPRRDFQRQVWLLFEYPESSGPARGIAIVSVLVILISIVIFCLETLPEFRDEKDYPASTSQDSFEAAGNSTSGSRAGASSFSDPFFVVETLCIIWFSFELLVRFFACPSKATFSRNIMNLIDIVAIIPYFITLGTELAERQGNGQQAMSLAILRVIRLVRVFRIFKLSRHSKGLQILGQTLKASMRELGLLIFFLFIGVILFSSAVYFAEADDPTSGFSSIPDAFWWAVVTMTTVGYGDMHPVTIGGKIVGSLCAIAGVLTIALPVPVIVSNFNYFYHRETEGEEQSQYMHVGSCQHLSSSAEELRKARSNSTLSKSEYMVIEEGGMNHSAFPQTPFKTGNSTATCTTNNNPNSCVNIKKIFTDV

T2 sequence (Q09470 whole entry): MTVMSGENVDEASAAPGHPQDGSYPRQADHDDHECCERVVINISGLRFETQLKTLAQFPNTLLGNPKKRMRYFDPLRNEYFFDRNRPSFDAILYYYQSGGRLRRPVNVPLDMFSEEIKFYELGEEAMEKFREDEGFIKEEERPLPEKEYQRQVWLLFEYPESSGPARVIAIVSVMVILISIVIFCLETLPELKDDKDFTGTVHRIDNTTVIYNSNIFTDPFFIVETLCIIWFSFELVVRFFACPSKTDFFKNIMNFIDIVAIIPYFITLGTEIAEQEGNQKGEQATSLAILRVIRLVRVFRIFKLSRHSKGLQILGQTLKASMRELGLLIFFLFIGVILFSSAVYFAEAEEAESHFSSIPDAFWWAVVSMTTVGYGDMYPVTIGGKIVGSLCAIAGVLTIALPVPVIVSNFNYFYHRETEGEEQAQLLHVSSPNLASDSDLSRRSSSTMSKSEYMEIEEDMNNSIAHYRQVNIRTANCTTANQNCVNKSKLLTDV
T3 sequence (Q09470 whole entry): as above
T1 sequence (P22001 whole entry): as the sequence (P22001 whole entry) above

## CC[C@H](C)[C@@H]1NC(=O)[C@H](CCCCN)NC(=O)[C@@H](NC(=O)[C@H](CCCCN)NC(=O)[C@@H](NC(=O)[C@H](CC(N)=O)NC(=O)[C@@H](NC(=O)[C@@H](NC(=O)[C@@H](NC(=O)[C@@H](N)Cc2cccc3ccccc23)C(C)C)[C@@H](C)CC)[C@@H](C)CC)C(C)C)CSSC[C@@H]2NC(=O)[C@H](CCCCN)NC(=O)CNC(=O)[C@H](Cc3ccccc3)NC(=O)[C@H](CCCNC(=N)N)NC(=O)[C@H](CCSC)NC(=O)CNC(=O)[C@H](C)NC(=O)[C@H](CCCCN)NC(=O)[C@H](CCCCN)NC(=O)[C@@H]3CSSC[C@@H](C(=O)N[C@H](C(=O)N4CCC[C@H]4C(=O)N[C@@H](CCCCN)C(=O)O)[C@@H](C)O)NC(=O)[C@H](Cc4c[nH]cn4)NC(=O)[C@H](CSSC[C@H](NC(=O)[C@H](CCC(N)=O)NC(=O)[C@H](CCCNC(=N)N)NC(=O)[C@H](CO)NC1=O)C(=O)N[C@@H](CC(C)C)C(=O)N[C@@H](CCC(=O)O)C(=O)N1CCC[C@H]1C(=O)N3)NC(=O)[C@H](CCCCN)NC(=O)CNC(=O)[C@H](CC(N)=O)NC(=O)[C@H](CCSC)NC2=O [G1Nal] (H-[1Nal]VIINVKCKISRQCLEPCKKAGMRFGKCMNGKCHCTPK-OH; disulfide 8-28, 14-33, 18-35)
[1]
  IC50: 2.56 nM
[2]
  IC50: 2.79 nM
[3]
  IC50: 0.0207 nM
[4]
  IC50: 0.0339 nM

## CC[C@H](C)[C@@H]1NC(=O)[C@H](CCCCN)NC(=O)[C@@H](NC(=O)[C@H](CCCCN)NC(=O)[C@@H](NC(=O)[C@H](CC(N)=O)NC(=O)[C@@H](NC(=O)[C@@H](NC(=O)[C@@H](NC(=O)CN)C(C)C)[C@@H](C)CC)[C@@H](C)CC)C(C)C)CSSC[C@@H]2NC(=O)[C@H](CCCCN)NC(=O)CNC(=O)[C@H](Cc3ccccc3)NC(=O)[C@H](CCCNC(=N)N)NC(=O)[C@H](CCSC)NC(=O)CNC(=O)[C@H](C)NC(=O)[C@H](CCCCN)NC(=O)[C@H](CCCCN)NC(=O)[C@@H]3CSSC[C@@H](C(=O)N[C@H](C(=O)N4CCC[C@H]4C(=O)N[C@@H](CCCCN)C(=O)O)[C@@H](C)O)NC(=O)[C@H](Cc4c[nH]cn4)NC(=O)[C@H](CSSC[C@H](NC(=O)[C@H](CCC(N)=O)NC(=O)[C@H](CCCNC(=N)N)NC(=O)[C@H](CO)NC1=O)C(=O)N[C@@H](CC(C)C)C(=O)N[C@@H](CCC(=O)O)C(=O)N1CCC[C@H]1C(=O)N3)NC(=O)[C@H](Cc1cccc3ccccc13)NC(=O)CNC(=O)[C@H](CC(N)=O)NC(=O)[C@H](CCSC)NC2=O [K32Nal] (H-GVIINVKCKISRQCLEPCKKAGMRFGKCMNG[1Nal]CHCTPK-OH; disulfide 8-28, 14-33, 18-35)
[1]
  IC50: 0.196 nM
[2]
  IC50: 0.134 nM
[3]
  IC50: 0.0261 nM
[4]
  IC50: 0.00191 nM

## IbTx: BKCa channel inhibitor iberiotoxin, purchased from Bachem (QFTDVDCSVSKECWSVCKDLFGVDRGKCMGKKCRCYQ; Definition of Artificial Sequence: Synthetic peptide) [reference compound]
[1]
  thapsigargin-induced IFN-g production in human whole blood: no significant activity
[5]
  thapsigargin-induced upregulation of CD40L on T cells: no significant activity
[6]
  thapsigargin-induced upregulation of the IL-2R on T cells: no significant activity
[2]
  thapsigargin-induced IL-2 production in human whole blood: no significant activity

## CC[C@H](C)[C@H](NC(=O)[C@@H](NC(=O)CN)C(C)C)C(=O)N[C@H](C(=O)N[C@@H](CC(N)=O)C(=O)N[C@H](C(=O)N[C@@H](CCCCN)C(=O)N[C@H]1CSSC[C@@H]2NC(=O)[C@H](CCCCN)NC(=O)CNC(=O)[C@H](Cc3ccccc3)NC(=O)[C@H](CCCNC(=N)N)NC(=O)[C@H](CCSC)NC(=O)CNC(=O)[C@H](C)NC(=O)[C@H](CCCCN)NC(=O)[C@H](CCCCN)NC(=O)[C@@H]3CSSC[C@@H](C(=O)N[C@H](C(=O)N4CCC[C@H]4C(=O)N[C@@H](CCCCN)C(=O)O)[C@@H](C)O)NC(=O)[C@H](Cc4c[nH]cn4)NC(=O)[C@H](CSSC[C@H](NC(=O)[C@H](CCC(N)=O)NC(=O)[C@H](CCCNC(=N)N)NC(=O)[C@H](CO)NC(=O)[C@H](Cc4cccc5ccccc45)NC(=O)[C@H](CCCCN)NC1=O)C(=O)N[C@@H](CC(C)C)C(=O)N[C@@H](CCC(=O)O)C(=O)N1CCC[C@H]1C(=O)N3)NC(=O)[C@H](CCCCN)NC(=O)CNC(=O)[C@H](CC(N)=O)NC(=O)[C@H](CCSC)NC2=O)C(C)C)[C@@H](C)CC [I10Nal] (H-GVIINVKCK[1Nal]SRQCLEPCKKAGMRFGKCMNGKCHCTPK-OH; disulfide 8-28, 14-33, 18-35)
[1]
  IC50: 0.257 nM
[2]
  IC50: 0.184 nM
[3]
  IC50: 0.0454 nM
[4]
  IC50: < 0.00152 nM

## Fc-L10-OSK1[K7S]: Fc-L10-OSK1 with lysine to serine at position 7
[7]
  change in selectivity compared to Fc-L10-OSK1: 1.3 fold
[8]
  change in Kv1.3 potency compared to Fc-L10-OSK1: 2 fold
  fold less potent than the synthetic OSK1 toxin peptide (Kv1.3 IC50): approximately 10 fold
  hKv1.1/hKv1.3 selectivity ratio: 269
[8]; read-out: IC50 for block of the outward potassium current
  IC50: 0.372 ± 0.071 nM

## Fc-L10-OSK1[E16K,K20D]: Fc-L10-OSK1 with glutamic acid to lysine at 16 and lysine to aspartic acid at 20
[7]
  blocking activity against Kv1.1: removed the blocking activity against Kv1.1

## Fc-L10-OSK1[K7S,E16K,K20D]: Fc-L10-OSK1 with triple substitution K7S, E16K, K20D
[7]; read-out: hKv1.1: IC50
  IC50: 10 nM

## CC[C@H](C)[C@@H]1NC(=O)[C@H](CCCCN)NC(=O)[C@@H](NC(=O)[C@H](CCCCN)NC(=O)[C@@H](NC(=O)[C@H](CC(N)=O)NC(=O)[C@@H](NC(=O)[C@@H](NC(=O)[C@@H](NC(=O)CN)C(C)C)[C@@H](C)CC)[C@@H](C)CC)C(C)C)CSSC[C@@H]2NC(=O)[C@H](CCCCN)NC(=O)CNC(=O)[C@H](Cc3ccccc3)NC(=O)[C@H](CCCNC(=N)N)NC(=O)[C@H](CCSC)NC(=O)CNC(=O)[C@H](Cc3cccc4ccccc34)NC(=O)[C@H](CCCCN)NC(=O)[C@H](CCCCN)NC(=O)[C@@H]3CSSC[C@@H](C(=O)N[C@H](C(=O)N4CCC[C@H]4C(=O)N[C@@H](CCCCN)C(=O)O)[C@@H](C)O)NC(=O)[C@H](Cc4c[nH]cn4)NC(=O)[C@H](CSSC[C@H](NC(=O)[C@H](CCC(N)=O)NC(=O)[C@H](CCCNC(=N)N)NC(=O)[C@H](CO)NC1=O)C(=O)N[C@@H](CC(C)C)C(=O)N[C@@H](CCC(=O)O)C(=O)N1CCC[C@H]1C(=O)N3)NC(=O)[C@H](CCCCN)NC(=O)CNC(=O)[C@H](CC(N)=O)NC(=O)[C@H](CCSC)NC2=O [A21Nal] (H-GVIINVKCKISRQCLEPCKK[1Nal]GMRFGKCMNGKCHCTPK-OH; disulfide 8-28, 14-33, 18-35)
[1]
  IC50: 0.434 nM
[2]
  IC50: 0.315 nM
[3]
  IC50: 0.0261 nM
[4]
  IC50: < 0.00152 nM

From patent US7820623B2 (priority 2006, dated 2010)
